The test system of this assay is MV-4-11 cells. As to the kind of experiment: Gene expression microarray analysis (Affymetrix PrimeView) and GSEA. It is filed as cell-based, human. Details: RFU PODN (11730768_x_at) / Fold change /veh PODN (11730768_x_at) / RFU LINC00158 (11744669_a_at) / Fold change /veh LINC00158 (11744669_a_at) / RFU DUSP10 (11751237_a_at) / Fold change /veh DUSP10 (11751237_a_at) / RFU ID3 (11757404_x_at) / Fold change /veh ID3 (11757404_x_at) / RFU PLEKHG5 (11737974_s_at) / Fold change /veh PLEKHG5 (11737974_s_at) / RFU LRRC4B (11730491_at) / Fold change /veh LRRC4B (11730491_at) / RFU GIMAP4 (11747438_a_at) / Fold change /veh GIMAP4 (11747438_a_at) / RFU KRT8 (11758183_x_at) / Fold change /veh KRT8 (11758183_x_at) / RFU CNN1 (11734310_a_at) / Fold change /veh CNN1 (11734310_a_at) / RFU VPS37D (11726825_at) / Fold change /veh VPS37D (11726825_at) / RFU C10orf10 (11716522_x_at) / Fold change /veh C10orf10 (11716522_x_at) / RFU KIR2DL2 /// KIR2DL4 /// KIR2DL5A /// KIR2DL5B /// KIR2DS1 /// KIR2DS2 /// KIR2DS3 /// KIR2DS4 /// KIR3DL3 /// KIR3DL3 /// KIR3DS1 (11738374_at) / Fold change /veh KIR2DL2 /// KIR2DL4 /// KIR2DL5A /// KIR2DL5B /// KIR2DS1 /// KIR2DS2 /// KIR2DS3 /// KIR2DS4 /// KIR3DL3 /// KIR3DL3 /// KIR3DS1 (11738374_at) / RFU C1QL1 (11718748_at) / Fold change /veh C1QL1 (11718748_at) / RFU TMPRSS4 (11747572_a_at) / Fold change /veh TMPRSS4 (11747572_a_at) / RFU HAMP (11756126_x_at) / Fold change /veh HAMP (11756126_x_at) / RFU RNFT2 (11725882_a_at) / Fold change /veh RNFT2 (11725882_a_at) / RFU NR4A2 (11747474_a_at) / Fold change /veh NR4A2 (11747474_a_at) / RFU ABCC12 (11746883_a_at) / Fold change /veh ABCC12 (11746883_a_at) / RFU TMEM136 (11760407_x_at) / Fold change /veh TMEM136 (11760407_x_at) / RFU CLDN22 /// WWC2 (11732394_at) / Fold change /veh CLDN22 /// WWC2 (11732394_at) / RFU HLA-DPB1 (11760878_x_at) / Fold change /veh HLA-DPB1 (11760878_x_at) / RFU SPINT1 (11716480_a_at) / Fold change /veh SPINT1 (11716480_a_at) / RFU GAP43 (11754022_s_at) / Fold change /veh GAP43 (11754022_s_at) / RFU A4GNT (11735810_at) / Fold change /veh A4GNT (11735810_at) / RFU PRB3 (11715151_x_at) / Fold change /veh PRB3 (11715151_x_at) / RFU TUBB4B (11761932_at) / Fold change /veh TUBB4B (11761932_at) / RFU CAPN14 (11732068_a_at) / Fold change /veh CAPN14 (11732068_a_at) / RFU TMCC2 (11721928_a_at) / Fold change /veh TMCC2 (11721928_a_at) / RFU IRGQ (11745062_a_at) / Fold change /veh IRGQ (11745062_a_at) / RFU FAM174B (11720279_a_at) / Fold change /veh FAM174B (11720279_a_at) / RFU TMPRSS4 (11748680_a_at) / Fold change /veh TMPRSS4 (11748680_a_at) / RFU FAM212B (11763350_a_at) / Fold change /veh FAM212B (11763350_a_at) / RFU PLEKHG5 (11743358_a_at) / Fold change /veh PLEKHG5 (11743358_a_at) / RFU ZSCAN30 (11745921_a_at) / Fold change /veh ZSCAN30 (11745921_a_at) / RFU CMKLR1 (11741424_a_at) / Fold change /veh CMKLR1 (11741424_a_at) / RFU LOC101060620 /// MAPK8IP1 (11723275_at) / Fold change /veh LOC101060620 /// MAPK8IP1 (11723275_at) / RFU SPTSSB (11747773_x_at) / Fold change /veh SPTSSB (11747773_x_at) / RFU PRSS12 (11739890_at) / Fold change /veh PRSS12 (11739890_at) / RFU BIN1 (11741810_x_at) / Fold change /veh BIN1 (11741810_x_at) / RFU WNT11 (11732464_a_at) / Fold change /veh WNT11 (11732464_a_at) / RFU C10orf10 (11716521_a_at) / Fold change /veh C10orf10 (11716521_a_at) / RFU C5orf56 (11738089_at) / Fold change /veh C5orf56 (11738089_at) / RFU CYB561 (11721691_x_at) / Fold change /veh CYB561 (11721691_x_at) / RFU ANKRD19P (11752326_a_at) / Fold change /veh ANKRD19P (11752326_a_at) / RFU OR2T12 /// OR2T33 /// OR2T8 (11738714_s_at) / Fold change /veh OR2T12 /// OR2T33 /// OR2T8 (11738714_s_at) / RFU VCAN (11748164_a_at) / Fold change /veh VCAN (11748164_a_at) / RFU JSRP1 (11732532_at) / Fold change /veh JSRP1 (11732532_at) / RFU KRTAP10-11 (11738290_x_at) / Fold change /veh KRTAP10-11 (11738290_x_at) / RFU MYO3A (11730013_a_at) / Fold change /veh MYO3A (11730013_a_at) / RFU EBF3 (11725865_a_at) / Fold change /veh EBF3 (11725865_a_at) / RFU CAMK2N1 (11719241_x_at) / Fold change /veh CAMK2N1 (11719241_x_at) / RFU C5orf56 (11738088_a_at) / Fold change /veh C5orf56 (11738088_a_at) / RFU OLFML3 (11715873_a_at) / Fold change /veh OLFML3 (11715873_a_at) / RFU LOC100653217 /// NTM (11731650_a_at) / Fold change /veh LOC100653217 /// NTM (11731650_a_at) / RFU MAPK11 (11762145_a_at) / Fold change /veh MAPK11 (11762145_a_at) / RFU FIZ1 (11724087_x_at) / Fold change /veh FIZ1 (11724087_x_at) / RFU OASL (11726364_x_at) / Fold change /veh OASL (11726364_x_at) / RFU SOX15 (11748057_x_at) / Fold change /veh SOX15 (11748057_x_at) / RFU CD79A (11719716_a_at) / Fold change /veh CD79A (11719716_a_at) / RFU HIST1H1D (11736915_at) / Fold change /veh HIST1H1D (11736915_at) / RFU CASKIN2 (11723855_a_at) / Fold change /veh CASKIN2 (11723855_a_at) / RFU LOC730098 (11760151_x_at) / Fold change /veh LOC730098 (11760151_x_at) / RFU OR4N2 (11742367_at) / Fold change /veh OR4N2 (11742367_at) / RFU PRRT2 (11749266_a_at) / Fold change /veh PRRT2 (11749266_a_at) / RFU SNX32 (11753110_a_at) / Fold change /veh SNX32 (11753110_a_at) / RFU CDHR5 (11726645_a_at) / Fold change /veh CDHR5 (11726645_a_at) / RFU RCAN1 (11760418_a_at) / Fold change /veh RCAN1 (11760418_a_at) / RFU FAM167A (11723789_a_at) / Fold change /veh FAM167A (11723789_a_at) / RFU FAM26E (11764081_at) / Fold change /veh FAM26E (11764081_at) / RFU ISYNA1 (11749810_s_at) / Fold change /veh ISYNA1 (11749810_s_at) / RFU ACY1 (11761880_at) / Fold change /veh ACY1 (11761880_at) / RFU 11764098_at / Fold change /veh 11764098_at / RFU SAMD14 (11745864_x_at) / Fold change /veh SAMD14 (11745864_x_at) / RFU NPB (11741838_a_at) / Fold change /veh NPB (11741838_a_at) / RFU TMPRSS6 (11731388_a_at) / Fold change /veh TMPRSS6 (11731388_a_at) / RFU KRTAP10-2 (11738614_at) / Fold change /veh KRTAP10-2 (11738614_at) / RFU ARHGAP8 /// PRR5-ARHGAP8 (11727945_x_at) / Fold change /veh ARHGAP8 /// PRR5-ARHGAP8 (11727945_x_at) / RFU KRTAP5-7 /// NADSYN1 (11734609_at) / Fold change /veh KRTAP5-7 /// NADSYN1 (11734609_at) / RFU RASL12 (11751679_a_at) / Fold change /veh RASL12 (11751679_a_at) / RFU CDKN2B (11736163_a_at) / Fold change /veh CDKN2B (11736163_a_at) / RFU PRF1 (11729649_at) / Fold change /veh PRF1 (11729649_at) / RFU, ZNF638 /// ZNF638-IT1 / Fold change vs veh, ZNF638 /// ZNF638-IT1 / RFU, PANK3 / Fold change vs veh, PANK3 / RFU, SH3YL1 / Fold change vs veh, SH3YL1 / RFU, ZEB2 / Fold change vs veh, ZEB2 / RFU, NRIP1 / Fold change vs veh, NRIP1 / RFU, PTTG1IP / Fold change vs veh, PTTG1IP / RFU, CAPN2 / Fold change vs veh, CAPN2 / RFU, MED14 / Fold change vs veh, MED14 / RFU, SNORA58 / Fold change vs veh, SNORA58 / RFU, C1orf63 / Fold change vs veh, C1orf63 / RFU, LRRFIP1 / Fold change vs veh, LRRFIP1 / RFU, NDUFAF7 / Fold change vs veh, NDUFAF7 / RFU, SLC12A2 / Fold change vs veh, SLC12A2 / RFU, IBTK / Fold change vs veh, IBTK / RFU, ESF1 / Fold change vs veh, ESF1 / Fold change vs veh, TMEM50B / RFU, TAOK1 / Fold change vs veh, TAOK1 / RFU, ACBD3 / Fold change vs veh, ACBD3 / RFU, TMA16 / Fold change vs veh, TMA16 / RFU, RWDD3 / Fold change vs veh, RWDD3 / RFU, BCAT1 / Fold change vs veh, BCAT1 / RFU, EDEM3 / Fold change vs veh, EDEM3 / RFU, TMEM33 / Fold change vs veh, TMEM33 / RFU, WDR75 / Fold change vs veh, WDR75 / RFU, AHCTF1 / Fold change vs veh, AHCTF1 / RFU, TFRC / Fold change vs veh, TFRC / RFU, ZDHHC17 / Fold change vs veh, ZDHHC17 / RFU, NOM1 / Fold change vs veh, NOM1 / RFU, ARL8B / Fold change vs veh, ARL8B / RFU, ZBTB11 / Fold change vs veh, ZBTB11 / RFU, TAMM41 / Fold change vs veh, TAMM41 / RFU, KIAA1704 /// LOC100996395 / Fold change vs veh, KIAA1704 /// LOC100996395 / RFU, ING1 / Fold change vs veh, ING1 / RFU, TRMT61B / Fold change vs veh, TRMT61B / RFU, FUBP3 / Fold change vs veh, FUBP3 / RFU, TP53 / Fold change vs veh, TP53 / RFU, TNKS2 / Fold change vs veh, TNKS2 / RFU, ZFP14 / Fold change vs veh, ZFP14 / RFU, ACTR2 / Fold change vs veh, ACTR2 / RFU, PPP3R1 / Fold change vs veh, PPP3R1 / RFU, PIK3R1 / Fold change vs veh, PIK3R1 / RFU, HNRNPA1 / Fold change vs veh, HNRNPA1 / RFU, RNF170 / Fold change vs veh, RNF170 / RFU, ZNF28 / Fold change vs veh, ZNF28 / RFU, RNGTT / Fold change vs veh, RNGTT / RFU, OGT / Fold change vs veh, OGT / RFU, BRD1 / Fold change vs veh, BRD1 / RFU, MARS / Fold change vs veh, MARS / RFU, ZNF655 / Fold change vs veh, ZNF655 / RFU, FAHD1 / Fold change vs veh, FAHD1 / RFU, BDP1 / Fold change vs veh, BDP1 / RFU, LRRCC1 / Fold change vs veh, LRRCC1 / RFU, ARID1A / Fold change vs veh, ARID1A / RFU, ZNF146 / Fold change vs veh, ZNF146 / RFU, ZNF330 / Fold change vs veh, ZNF330 / RFU, GPN3 / Fold change vs veh, GPN3 / RFU, C9orf123 / Fold change vs veh, C9orf123 / RFU, N4BP2L2 / Fold change vs veh, N4BP2L2 / RFU, ARFIP1 / Fold change vs veh, ARFIP1 / RFU, FAM179B / Fold change vs veh, FAM179B / RFU, BCL10 / Fold change vs veh, BCL10 / RFU, UHRF1BP1L / Fold change vs veh, UHRF1BP1L / RFU, BET1 / Fold change vs veh, BET1 / RFU, CNOT2 / Fold change vs veh, CNOT2 / RFU, ZNF268 / Fold change vs veh, ZNF268 / Fold change vs veh, ZNF507 / RFU, DGCR2 / Fold change vs veh, DGCR2 / RFU, WDSUB1 / Fold change vs veh, WDSUB1 / Fold change vs veh, HSP90B1 /// MIR3652 / RFU, ADSS / Fold change vs veh, ADSS / RFU, GK / Fold change vs veh, GK / RFU, ZNF148 / Fold change vs veh, ZNF148 / RFU, TAF9 / Fold change vs veh, TAF9 / RFU, SLC1A5 / Fold change vs veh, SLC1A5 / RFU, SLMO2 / Fold change vs veh, SLMO2 / RFU, ABCC4 / Fold change vs veh, ABCC4 / RFU, LOC101060439 /// RAP1B / Fold change vs veh, LOC101060439 /// RAP1B / RFU, RFX7 / Fold change vs veh, RFX7 / RFU, GTPBP10 / Fold change vs veh, GTPBP10 / RFU, CNEP1R1 / Fold change vs veh, CNEP1R1 / RFU, BIVM-ERCC5 /// ERCC5 / Fold change vs veh, BIVM-ERCC5 /// ERCC5 / RFU, ILF3 / Fold change vs veh, ILF3 / RFU 11762660_at / Fold change /veh 11762660_at / RFU VCAN (11757783_s_at) / Fold change /veh VCAN (11757783_s_at) / RFU DDX43 (11728927_at) / Fold change /veh DDX43 (11728927_at) / RFU KRT8 (11758188_x_at) / Fold change /veh KRT8 (11758188_x_at) / RFU NKD1 (11759106_at) / Fold change /veh NKD1 (11759106_at) / RFU SRD5A1 (11742802_a_at) / Fold change /veh SRD5A1 (11742802_a_at) / RFU TPSAB1 /// TPSB2 (11721975_s_at) / Fold change /veh TPSAB1 /// TPSB2 (11721975_s_at) / RFU GSTM3 (11746129_a_at) / Fold change /veh GSTM3 (11746129_a_at) / RFU IL23R (11737362_x_at) / Fold change /veh IL23R (11737362_x_at) / RFU TMEM51 (11727254_a_at) / Fold change /veh TMEM51 (11727254_a_at) / RFU PIWIL2 (11732686_x_at) / Fold change /veh PIWIL2 (11732686_x_at) / RFU ORM1 (11744905_x_at) / Fold change /veh ORM1 (11744905_x_at) / RFU CCDC152 (11743942_at) / Fold change /veh CCDC152 (11743942_at) / RFU ECM1 (11717891_a_at) / Fold change /veh ECM1 (11717891_a_at) / RFU IL23R (11748794_a_at) / Fold change /veh IL23R (11748794_a_at) / RFU TNFAIP8L3 (11732012_x_at) / Fold change /veh TNFAIP8L3 (11732012_x_at) / RFU MBOAT4 (11741988_at) / Fold change /veh MBOAT4 (11741988_at) / RFU 11764193_at / Fold change /veh 11764193_at / RFU TMEM53 (11763286_at) / Fold change /veh TMEM53 (11763286_at) / RFU MAGEB2 (11727129_at) / Fold change /veh MAGEB2 (11727129_at) / RFU TMEM200A (11744735_a_at) / Fold change /veh TMEM200A (11744735_a_at) / RFU CCDC152 (11751479_a_at) / Fold change /veh CCDC152 (11751479_a_at) / RFU FAM211A (11726209_a_at) / Fold change /veh FAM211A (11726209_a_at) / RFU RGS16 (11746705_a_at) / Fold change /veh RGS16 (11746705_a_at) / RFU VCAN (11755009_s_at) / Fold change /veh VCAN (11755009_s_at) / RFU RHOB (11743442_s_at) / Fold change /veh RHOB (11743442_s_at) / RFU RGS16 (11720943_a_at) / Fold change /veh RGS16 (11720943_a_at) / RFU RGS16 (11720944_at) / Fold change /veh RGS16 (11720944_at) / RFU, VPS4B / Fold change vs veh, VPS4B / RFU, CREB1 / Fold change vs veh, CREB1 / RFU, DNAJC13 / Fold change vs veh, DNAJC13 / RFU, GNAQ / Fold change vs veh, GNAQ / RFU, CDK5R1 / Fold change vs veh, CDK5R1 / RFU, ZRANB3 / Fold change vs veh, ZRANB3 / RFU, CUL4A / Fold change vs veh, CUL4A / RFU, CCNY / Fold change vs veh, CCNY / RFU, UFL1 / Fold change vs veh, UFL1 / RFU, COG3 / Fold change vs veh, COG3 / RFU, DIAPH2 / Fold change vs veh, DIAPH2 / RFU, SKA2 / Fold change vs veh, SKA2 / RFU, AFF3 / Fold change vs veh, AFF3 / RFU, LMF1 / Fold change vs veh, LMF1 / RFU, IPO11 / Fold change vs veh, IPO11 / RFU, DFFB / Fold change vs veh, DFFB / RFU, FOXP1 / Fold change vs veh, FOXP1 / RFU, CARD8 / Fold change vs veh, CARD8 / RFU, STRN3 / Fold change vs veh, STRN3 / RFU, ADK / Fold change vs veh, ADK / RFU, RASSF2 / Fold change vs veh, RASSF2 / RFU, WIPF1 / Fold change vs veh, WIPF1 / RFU, LARP1B / Fold change vs veh, LARP1B / RFU, RASA1 / Fold change vs veh, RASA1 / RFU, RB1 / Fold change vs veh, RB1 / RFU, PPFIA1 / Fold change vs veh, PPFIA1 / RFU, MAT2A / Fold change vs veh, MAT2A / RFU, CCT5 / Fold change vs veh, CCT5 / RFU, WDR92 / Fold change vs veh, WDR92 / RFU, CUX1 / Fold change vs veh, CUX1 / RFU, TTC7A / Fold change vs veh, TTC7A / RFU, TMEM135 / Fold change vs veh, TMEM135 / RFU, DEPTOR / Fold change vs veh, DEPTOR / RFU, CPM / Fold change vs veh, CPM / RFU, DNAJB6 / Fold change vs veh, DNAJB6 / RFU, CACNA2D3 / Fold change vs veh, CACNA2D3 / RFU, DTX4 / Fold change vs veh, DTX4 / RFU, TFCP2 / Fold change vs veh, TFCP2 / RFU, GMCL1 /// GMCL1P1 / Fold change vs veh, GMCL1 /// GMCL1P1 / RFU, AEBP2 / Fold change vs veh, AEBP2 / RFU, SNHG1 /// SNORD22 /// SNORD25 /// SNORD26 /// SNORD27 /// SNORD28 /// SNORD29 /// SNORD31 / Fold change vs veh, SNHG1 /// SNORD22 /// SNORD25 /// SNORD26 /// SNORD27 /// SNORD28 /// SNORD29 /// SNORD31 / Fold change (Aza/veh), C12orf56 (ProbeSet 11735607_a_at) / Fold change (ACY-1035/veh), C12orf56 (ProbeSet 11735607_a_at) / Fold change (Aza/veh), FGFR1OP (ProbeSet 11751329_s_at) / Fold change (ACY-1035/veh), FGFR1OP (ProbeSet 11751329_s_at) / Fold change (Aza/veh), VPS36 (ProbeSet 11739960_a_at) / Fold change (ACY-1035/veh), VPS36 (ProbeSet 11739960_a_at) / RFU SYPL1 (11715823_x_at) / Fold change /veh SYPL1 (11715823_x_at) / RFU IGFBP7 (11715501_s_at) / Fold change /veh IGFBP7 (11715501_s_at) / RFU REEP3 (11722064_at) / Fold change /veh REEP3 (11722064_at) / RFU IGLL1 (11728026_x_at) / Fold change /veh IGLL1 (11728026_x_at): dose or concentration left out as unconfirmed. The following applies: MV-4-11 cells, 48 hours.

SMILES strings stand for the structures.

As to `Nc1ncn([C@@H]2O[C@H](CO)[C@@H](O)[C@H]2O)c(=O)n1` [azacitidine], the “Fold change /veh MAPK11 (11762145_a_at)” value worked out at 1.03.

For the origin of these results see publication PMC5218480 (PLoS ONE, 2017).
